# Values quoted from earlier work in patent US8445438B2, “Compositions comprising capture peptides for A β-amyloid peptide” (Recombinant Technologies LLC, priority 2008, dated 2013).
# Test system: Aβ
# Settings: peptide based on the GxFxGxF scaffold
# Sequence of Aβ (P05067 672-711 limits assumed): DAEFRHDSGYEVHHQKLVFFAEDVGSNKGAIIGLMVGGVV
sequence,measurement,value
RGTWEGKW (listed as Homo sapiens),cellular toxicity,reduce cellular toxicity
